Assay results from US20230340011A1 (Asteroid Therapeutics, priority 2022, published 2023).

Assays:
[1] = biological target: SREBP-2 (Homo sapiens (Human), UniProt Q12772); assay: In vitro assay SREBP-2: PathHunter U2OS SREBP-2 Nuclear Translocation Cell Line, U18666A-stimulated; format: cell-based; details: PathHunter U2OS SREBP-2 nuclear translocation cells, U18666A 10 μM, overnight (16 hours)
[2] = biological target: LXRβ (Homo sapiens (Human), UniProt P55055); assay: In vitro assay LXRβ: PathHunter NHR CHO cells, LXRβ / Steroid Receptor Co-activator Peptide enzyme fragment complementation; format: cell-based; details: PathHunter NHR CHO cells, full-length human LXRβ and SRCP, chemiluminescent signal; read-out: LXRβ PPI
Outline: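 Enzyme fragment complementation read-out: CHO cells stably expressing ProLink-tagged full-length human LXRβ plus nuclear enzyme acceptor–SRCP fusion, seeded and held overnight at 37° C. Medium with charcoal-dextran filtered serum; final vehicle 1%. Chemiluminescence measured after signal generation.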

Sequence of LXRβ (P55055 whole entry, the tested form may be a part): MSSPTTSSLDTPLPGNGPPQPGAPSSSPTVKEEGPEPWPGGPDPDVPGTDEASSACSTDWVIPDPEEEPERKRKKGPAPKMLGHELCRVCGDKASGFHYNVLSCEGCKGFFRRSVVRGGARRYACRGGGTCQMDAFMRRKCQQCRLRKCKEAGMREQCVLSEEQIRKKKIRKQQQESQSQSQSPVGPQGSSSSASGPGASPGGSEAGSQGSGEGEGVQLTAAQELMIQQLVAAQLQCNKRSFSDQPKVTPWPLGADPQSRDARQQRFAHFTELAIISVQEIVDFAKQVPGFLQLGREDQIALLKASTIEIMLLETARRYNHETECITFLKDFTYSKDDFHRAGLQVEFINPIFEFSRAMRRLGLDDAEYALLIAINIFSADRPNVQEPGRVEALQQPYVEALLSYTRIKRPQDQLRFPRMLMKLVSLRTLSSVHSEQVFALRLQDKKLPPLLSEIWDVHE

Row | Structure (SMILES) | IC50 [1] | EC50 [2]
1 | Cc1c(N2CCN(C(=O)CC[C@@H](C)[C@H]3CC[C@H]4[C@@H]5CC=C6C[C@@H](O)CC[C@]6(C)[C@H]5CC[C@]34C)CC2)cnn1C [Example 603, (R)-1-(4-(1,5-dimethyl-1H-pyrazol-4-yl)piperazin-1-yl)-4-((3S,8S,9S,10R,13R,14S,17R)-3-hydroxy-10,13-dimethyl-2,3,4,7,8,9,10,11,12,13,14,15,16,17-tetradecahydro-1H-cyclopenta[a]phenanthren-17-yl)pentan-1-one] | < 250 nM | > 10000 nM
2 | CCC1(O)CCN(C(=O)OC[C@@H](C)[C@H]2CC[C@H]3[C@@H]4CC=C5C[C@@H](O)CC[C@]5(C)[C@H]4CC[C@]23C)CC1 [Example 348, (S)-2-((3S,8S,9S,10R,13S,14S,17R)-3-hydroxy-10,13-dimethyl-2,3,4,7,8,9,10,11,12,13,14,15,16,17-tetradecahydro-1H-cyclopenta [a]phenanthren-17-yl)propyl 4-ethyl-4-hydroxypiperidine-1-carboxylate] | < 250 nM | > 10000 nM
3 | C[C@H](CCC(=O)N1CCN(c2cc(N(C)C)ncn2)CC1)[C@H]1CC[C@H]2[C@@H]3CC=C4C[C@@H](O)CC[C@]4(C)[C@H]3CC[C@]12C [Example 663, (R)-1-(4-(6-(dimethylamino)pyrimidin-4-yl)piperazin-1-yl)-4-((3S,8S,9S,10R,13R,14S,17R)-3-hydroxy-10,13-dimethyl-2,3,4,7,8,9,10,11,12,13,14,15,16,17-tetradecahydro-1H-cyclopenta[a]phenanthren-17-yl)pentan-1-one] | < 250 nM | > 10000 nM
4 | C[C@H](CCc1nccs1)[C@H]1CC[C@H]2[C@@H]3CC=C4C[C@@H](O)CC[C@]4(C)[C@H]3CC[C@]12C [Example 172, (1R,3aS,3bS,7S,9aR,9bS,11aR)-9a,11a-dimethyl-1-[(2R)-4-(1,3-thiazol-2-yl)butan-2-yl]-1H,2H,3H,3aH,3bH,4H,6H,7H,8H,9H,9aH,9bH,10H,11H,11aH-cyclopenta[a]phenanthren-7-ol] | 250 to 1000 nM | 1000 to 10000 nM
5 | COC(=O)N1CCN(C(=O)CC[C@@H](C)[C@H]2CC[C@H]3[C@@H]4CC=C5C[C@@H](O)CC[C@]5(C)[C@H]4CC[C@]23C)CC1 [Example 360, methyl 4-((R)-4-((3S,8S,9S,10R,13R,14S,17R)-3-hydroxy-10,13-dimethyl-2,3,4,7,8,9,10,11,12,13,14,15,16,17-tetradecahydro-1H-cyclopenta[a]phenanthren-17-yl)pentanoyl)piperazine-1-carboxylate] | < 250 nM | > 10000 nM
6 | C[C@H](CCC(=O)N1CCN(C(=O)c2ccns2)CC1)[C@H]1CC[C@H]2[C@@H]3CC=C4C[C@@H](O)CC[C@]4(C)[C@H]3CC[C@]12C [Example 311, (R)-4-((3S,8S,9S,10R,13R,14S,17R)-3-hydroxy-10,13-dimethyl-2,3,4,7,8,9,10,11,12,13,14,15,16,17-tetradecahydro-1H-cyclopenta[a]phenanthren-17-yl)-1-(4-(isothiazole-5-carbonyl)piperazin-1-yl)pentan-1-one] | < 250 nM | > 10000 nM
7 | C[C@H](CCC(=O)N1CCN(c2cccnc2O)CC1)[C@H]1CC[C@H]2[C@@H]3CC=C4C[C@@H](O)CC[C@]4(C)[C@H]3CC[C@]12C [Example 640, (R)-4-((3S,8S,9S,10R,13R,14S,17R)-3-hydroxy-10,13-dimethyl-2,3,4,7,8,9,10,11,12,13,14,15,16,17-tetradecahydro-1H-cyclopenta[a]phenanthren-17-yl)-1-(4-(2-hydroxypyridin-3-yl)piperazin-1-yl) pentan-1-one] | < 250 nM | > 10000 nM
